# Reference: PMC3969763 (Molecular biology reports, 2014)
# Molecular target: T1, β2-chimaerin (Homo sapiens, UniProt P52757)
# T1 sequence (P52757 1-468): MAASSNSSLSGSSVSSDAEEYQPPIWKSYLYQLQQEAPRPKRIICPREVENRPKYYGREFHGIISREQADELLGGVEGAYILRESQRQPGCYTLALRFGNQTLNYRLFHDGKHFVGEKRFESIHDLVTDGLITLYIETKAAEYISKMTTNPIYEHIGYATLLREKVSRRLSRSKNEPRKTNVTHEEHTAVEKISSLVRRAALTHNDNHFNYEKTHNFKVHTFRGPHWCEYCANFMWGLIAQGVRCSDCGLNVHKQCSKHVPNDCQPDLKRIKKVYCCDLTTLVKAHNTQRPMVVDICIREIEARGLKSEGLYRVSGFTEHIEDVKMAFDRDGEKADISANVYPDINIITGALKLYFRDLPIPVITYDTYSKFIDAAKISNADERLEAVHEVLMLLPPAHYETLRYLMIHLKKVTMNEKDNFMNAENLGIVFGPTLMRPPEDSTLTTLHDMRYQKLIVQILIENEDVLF
# Format: cell-based
compound,measurement,value
CCCCCCCCCCCCCC(=O)O[C@@H]1[C@@H](C)[C@@]2(O)[C@@H](C=C(CO)C[C@]3(O)C(=O)C(C)=C[C@@H]23)[C@@H]2C(C)(C)[C@]12OC(C)=O [Phorbol 12-myristate 13-acetate],EC50,1.202 ± 0.001 µM
